This passage reports IC50 results from patent US8349880B2, “Bicyclic compounds for the reduction of beta-amyloid production” (Bristol-Myers Squibb Company, priority 2009, dated 2013).

For orientation: IC50 means the concentration at which inhibition is half-maximal.

In one test the test system is Aβ1-42 production. Briefly: Cellular assay for inhibition of Aβ1-42 production (H4 APP751 SWE clone 8.20). It is filed as cell-based. The note with it: 19 h, H4 APP751 SWE clone 8.20 cells, 19 h incubation; read-out: Activity Rating (Aβ42 cellular IC50, given as a number). As to the method: Cellular assays for inhibition of Aβ1-40 and Aβ1-42 production
H4 cells stably transfected with APP751 containing the Swedish mutation (H4 APP751 SWE clone 8.20, developed at BMS) were maintained in log phase through twice weekly passage at a 1:20 split. For IC50 determinations, 30 μl cells (1.5×10^4 cells/well) in DMEM media containing 0.0125% BSA (Sigma A8412) were plated directly into 384-well compound plates (Costar 3709) containing 0.1 μl serially diluted compound in DMSO. Following incubation for 19 h in 5% CO2 at 37° C., plates were briefly centrifuged (1000 rpm, 5 min). A 10 μl aliquot from each well was transferred to a second assay plate (Costar 3709) for Aβ40 measurements. Antibody cocktails were freshly prepared by dilution into 40 mM Tris-HCl (pH 7.4) with 0.2% BSA and added to assay plates. For Aβ42 measurements, antibodies specific for the Aβ42 neoepitope (565, developed at BMS; conjugated to the Wallac reagent (Perkin Elmer)) and the N-terminal sequence of Aβ peptide (26D6, developed at SIBIA; conjugated to APC (Perkin Elmer)) were mixed and 20 μl of the mixture was added to each well of the incubated cell plate yielding a final concentration of 0.8 ng/well 565 and 75 ng/well 26D6. For the Aβ40 measurements, antibodies specific for the Aβ40 neoepitope (TSD, developed at BMS; conjugated to the Wallac reagent (Perkin Elmer)) and 26D6 as described above were mixed and 20 μl of the mixture was added to the 10 μl aliquots which had been removed previously from the cell plate yielding a final concentration of 1.6 ng/well TSD and 17.5 ng/well 26D6. Assay plates containing antibodies were sealed with aluminum foil and incubated overnight at 4° C. Signal was determined using a Viewlux counter (Perkin Elmer) and IC50 values determined using curve fitting in CurveMaster (Excel Fit based).
In the case of `COc1cc(Nc2nc3n(n2)C[C@H](O)[C@H](O)CC3c2ccc(F)cc2)ccc1-n1cnc(Cl)c1` (relative stereo) [Example 63, rel-(6S,7R,9R)-2-(4-(4-chloro-1H-imidazol-1-yl)-3-methoxyphenylamino)-9-(4-fluorophenyl)-6,7,8,9-tetrahydro-5H-[1,2,4]triazolo azepine-6,7-diol 2,2,2-trifluoroacetate], the IC50 was 140 nM.
For the compound `Cc1ncnn1-c1ccc(Nc2nc3n(n2)CC[C@H](O)C[C@@H]3c2ccc(F)cc2)cc1F` (relative stereo) [Example 156, rel-(7R,9R)-2-(3-fluoro-4-(5-methyl-1H-1,2,4-triazol-1-yl)phenylamino)-9-(4-fluorophenyl)-6,7,8,9-tetrahydro-5H-[1,2,4]triazolo[1,5-a]azepin-7-ol 2,2,2-trifluoroacetate], the IC50 turned out to be 122 nM.
Still for that read-out and setting: the value for `COc1cc(Nc2nc3n(n2)CC=CC[C@H]3c2ccc(F)cc2)ccc1-n1cnc(Cl)c1` (single isomer, unassigned) [Example 2] was 9 nM.
Same read-out and setting: the result for `Cc1ncnn1-c1ccc(Nc2nc3n(n2)CCC[C@H]3c2ccc(F)cc2)cc1F` (single isomer, unassigned) [Example 14] reads 53 nM.

Staying with this test, now noted: 19 h, H4 APP751 SWE clone 8.20 cells, 19 h incubation; read-out: Activity Rating (based on Aβ42 cellular IC50 values).
Regarding `COc1cc(Nc2nc3n(n2)C[C@H](O)CC[C@H]3c2ccc(F)cc2)ccc1-n1cnc(Cl)c1` (relative stereo) [Example 62, rel-(6R,9S)-2-(4-(4-chloro-1H-imidazol-1-yl)-3-methoxyphenylamino)-9-(4-fluorophenyl)-6,7,8,9-tetrahydro-5H-[1,2,4]triazolo[1,5-a]azepin-6-ol 2,2,2-trifluoroacetate], the concentration for half-maximal inhibition (IC50) was under 10 nM.
The same measure, in the same setting: the result for `COc1cc(Nc2nc3n(n2)C[C@H](O)[C@H](O)C[C@H]3c2ccc(F)cc2)ccc1-n1cnc(Cl)c1` (relative stereo) [Example 64, rel-(6S,7R,9S)-2-(4-(4-chloro-1H-imidazol-1-yl)-3-methoxyphenylamino)-9-(4-fluorophenyl)-6,7,8,9-tetrahydro-5H-[1,2,4]triazolo[1,5-a]azepine-6,7-diol 2,2,2-trifluoroacetate] reads 10 to 100 nM; that for `COc1cc(Nc2nc3n(n2)C[C@H](O)CC[C@@H]3c2ccc(F)cc2)ccc1-n1cnc(Cl)c1` (relative stereo) [Example 65, rel-(6R,9R)-2-(4-(4-chloro-1H-imidazol-1-yl)-3-methoxyphenylamino)-9-(4-fluorophenyl)-6,7,8,9-tetrahydro-5H-[1,2,4]triazolo[1,5-a]azepin-6-ol 2,2,2-trifluoroacetate], under 10 nM; that for `COc1cc(Nc2nc3n(n2)CC[C@@H](O)C[C@@H]3c2ccc(F)cc2)ccc1-n1cnc(Cl)c1` (relative stereo) [Example 66, rel-(7S,9R)-2-(4-(4-chloro-1H-imidazol-1-yl)-3-methoxyphenylamino)-9-(4-fluorophenyl)-6,7,8,9-tetrahydro-5H-[1,2,4]triazolo[1,5-a]azepin-7-ol 2,2,2-trifluoroacetate], under 10 nM.
Take `COc1cc(Nc2nc3n(n2)C[C@H](F)[C@H](F)C[C@H]3c2ccc(F)cc2)ccc1-n1cnc(Cl)c1` (relative stereo) [Example 91, rel-(6S,7R,9S)—N-(4-(4-chloro-1H-imidazol-1-yl)-3-methoxyphenyl)-6,7-difluoro-9-(4-fluorophenyl)-6,7,8,9-tetrahydro-5H-[1,2,4]triazolo[1,5-a]azepin-2-amine 2,2,2-trifluoroacetate]: the IC50 is under 10 nM.
Turning to `COc1cc(Nc2nc3n(n2)CC[C@](C)(O)C[C@@H]3c2ccc(F)cc2)ccc1-n1cnc(Cl)c1` (relative stereo) [Example 147, rel-(7R,9R)-2-(4-(4-chloro-1H-imidazol-1-yl)-3-methoxyphenylamino)-9-(4-fluorophenyl)-7-methyl-6,7,8,9-tetrahydro-5H-[1,2,4]triazolo[1,5-a]azepin-7-ol 2,2,2-trifluoroacetate], the IC50 is under 10 nM.
In the case of `Cc1ncnn1-c1ccc(Nc2nc3n(n2)CC[C@](C)(O)C[C@@H]3c2ccc(F)cc2)cc1F` (relative stereo) [Example 150, rel-(7R,9R)-2-(3-fluoro-4-(5-methyl-1H-1,2,4-triazol-1-yl)phenylamino)-9-(4-fluorophenyl)-7-methyl-6,7,8,9-tetrahydro-5H-[1,2,4]triazolo[1,5-a]azepin-7-ol 2,2,2-trifluoroacetate], the IC50 was 10 to 100 nM.
As to `Cc1ncnn1-c1ccc(Nc2nc3n(n2)CC[C@@](C)(O)C[C@@H]3c2ccc(F)cc2)cc1F` (relative stereo) [Example 151, rel-(7S,9R)-2-(3-fluoro-4-(5-methyl-1H-1,2,4-triazol-1-yl)phenylamino)-9-(4-fluorophenyl)-7-methyl-6,7,8,9-tetrahydro-5H-[1,2,4]triazolo[1,5-a]azepin-7-ol 2,2,2-trifluoroacetate], the IC50 fell in the range of 10 to 100 nM.
Still for that read-out and setting: the result for `COc1cc(Nc2nc3n(n2)CC[C@](C)(O)C[C@@H]3c2ccc(OC(F)(F)F)cc2)ccc1-n1cnc(Cl)c1` (relative stereo) [Example 152, rel-(7R,9R)-2-(4-(4-chloro-1H-imidazol-1-yl)-3-methoxyphenylamino)-7-methyl-9-(4-(trifluoromethoxy)phenyl)-6,7,8,9-tetrahydro-5H-[1,2,4]triazolo[1,5-a]azepin-7-ol 2,2,2-trifluoroacetate] reads under 10 nM.
On the same count and under the same terms, the result for `COc1cc(Nc2nc3n(n2)CC[C@@](C)(O)C[C@@H]3c2ccc(OC(F)(F)F)cc2)ccc1-n1cnc(Cl)c1` (relative stereo) [Example 153, rel-(7S,9R)-2-(4-(4-chloro-1H-imidazol-1-yl)-3-methoxyphenylamino)-7-methyl-9-(4-(trifluoromethoxy)phenyl)-6,7,8,9-tetrahydro-5H-[1,2,4]triazolo[1,5-a]azepin-7-ol 2,2,2-trifluoroacetate] reads under 10 nM; that for `Cc1ncn(-c2ccc(Nc3nc4n(n3)CC[C@](C)(O)C[C@@H]4c3ccc(F)cc3)cc2F)n1` (relative stereo) [Example 154, rel-(7R,9R)-2-(3-fluoro-4-(3-methyl-1H-1,2,4-triazol-1-yl)phenylamino)-9-(4-fluorophenyl)-7-methyl-6,7,8,9-tetrahydro-5H-[1,2,4]triazolo[1,5-a]azepin-7-ol 2,2,2-trifluoroacetate], 10 to 100 nM; that for `Cc1ncn(-c2ccc(Nc3nc4n(n3)CC[C@@](C)(O)C[C@@H]4c3ccc(F)cc3)cc2F)n1` (relative stereo) [Example 155, rel-(7S,9R)-2-(3-fluoro-4-(3-methyl-1H-1,2,4-triazol-1-yl)phenylamino)-9-(4-fluorophenyl)-7-methyl-6,7,8,9-tetrahydro-5H-[1,2,4]triazolo[1,5-a]azepin-7-ol 2,2,2-trifluoroacetate], 10 to 100 nM.
The same measure, in the same setting: the result for `Cc1ncnn1-c1ccc(Nc2nc3n(n2)CC[C@@H](O)C[C@@H]3c2ccc(F)cc2)cc1F` (relative stereo) [Example 157, rel-(7S,9R)-2-(3-fluoro-4-(5-methyl-1H-1,2,4-triazol-1-yl)phenylamino)-9-(4-fluorophenyl)-6,7,8,9-tetrahydro-5H-[1,2,4]triazolo[1,5-a]azepin-7-ol 2,2,2-trifluoroacetate] reads 10 to 100 nM.
Turning to `COc1cc(Nc2nc3n(n2)CC=CC[C@@H]3c2ccc(F)cc2)ccc1-n1cnc(Cl)c1` (single isomer, unassigned) [Example 3], the IC50 is under 10 nM.
Same read-out and setting: the value for `COc1cc(Nc2nc3n(n2)CC=CC[C@H]3c2ccc(F)cc2)ccc1-n1cnc(C)n1` (single isomer, unassigned) [Example 5] was 10 to 100 nM; that for `COc1cc(Nc2nc3n(n2)CC=CC[C@@H]3c2ccc(F)cc2)ccc1-n1cnc(C)n1` (single isomer, unassigned) [Example 6] was 10 to 100 nM; that for `Cc1ncnn1-c1ccc(Nc2nc3n(n2)CCC[C@@H]3c2ccc(F)cc2)cc1F` (single isomer, unassigned) [Example 15] was 100 to 1000 nM.
As to `COc1cc(Nc2nc3n(n2)CCCC[C@H]3c2ccc(F)cc2)ccc1-n1cnc(Cl)c1` (single isomer, unassigned) [Example 17], the IC50 was under 10 nM.
For the compound `COc1cc(Nc2nc3n(n2)CCCC[C@@H]3c2ccc(F)cc2)ccc1-n1cnc(Cl)c1` (single isomer, unassigned) [Example 18], the IC50 is 10 to 100 nM.
With `COc1cc(Nc2nc3n(n2)CCCC[C@H]3c2ccc(Cl)cc2Cl)ccc1-n1cnc(Cl)c1` (single isomer, unassigned) [Example 20], the 50% inhibitory concentration (IC50) was under 10 nM.
Still for that read-out and setting: the value for `COc1cc(Nc2nc3n(n2)CCCC[C@@H]3c2ccc(Cl)cc2Cl)ccc1-n1cnc(Cl)c1` (single isomer, unassigned) [Example 21] was under 10 nM.
Same read-out and setting: the value for `COc1cc(Nc2nc3n(n2)CCCC[C@@H]3c2ccc(F)c(F)c2)ccc1-n1cnc(Cl)c1` (single isomer, unassigned) [Example 24] was under 10 nM.
